According to US20050032124A1, “Identification of genotype-selective agents for treating Huntington's disease” (priority 2003, published 2005):

Columns and labels:
Format in all cases: cell-based, human
BJ primary cells [1] = assay: Calcein AM viability assay, dilution-series retest; conditions: BJ cells; 16-point two-fold dilution; two days
Source text: (§1) Described here is work carried out to identify compounds with increased potency or activity in the presence of hTERT, LT, ST, E6, E7 or RAS^V12. Engineered cell lines with these genetic elements were used to screen […] compounds, including 20,000 compounds from a combinatorial library, 1,990 compounds from the National Cancer Institute diversity collection, and 1,540 biologically active known compounds that were selected and purchased by Applicant and formatted into a screenable collection. The primary screen tested (in quadruplicate) the effect of treating tumorigenic BJ-TERT/LT/ST/RAS^V12 engineered tumorigenic cells with each compound for 48 hours at a concentration of 4 μg/mL, corresponding to 10 μM for a compound with a molecular weight of 400, which is the approximate median molecular weight of the libraries. Cell viability was measured using the dye calcein acetoxymethyl ester (calcein AM) (Wang et al., 1993, Hum. Immunol. 3 7, 264-270), which is a non-fluorescent compound that freely diffuses into cells. In live cells, calcein AM is cleaved by intracellular esterases, forming the anionic fluorescent derivative calcein, which cannot diffuse out of live cells. […] The IC50 value (concentration required to inhibit 50% of the calcein AM signal) was calculated for each compound in each cell line (Table 1). […] Following is a more detailed analysis of these nine compounds.
(§2) Calcein acetoxylmethyl ester (AM) is a cell membrane-permeable, non-fluorescent compound that is cleaved by intracellular esterases to form the anionic, cell-impermeable, fluorescent compound calcein. Viable cells are stained by calcein because of the presence of intracellular esterases and because the intact plasma membrane prevents fluorescent calcein from leaking out of cells (Wang et al., 1993, supra). Cells were seeded in 384-well plates using a Zymark Sciclone ALH, treated with each compound in triplicate at 4 μg/mL in the primary screen for two days, washed with phosphate-buffered saline on a Packard Minitrak with a 384-well washer and incubated for four hours with 0.7 μg/mL calcein (Molecular Probes). Total fluorescence intensity in each well was recorded on a Packard Fusion platereader, and converted to a percent inhibition of signal by subtracting the instrument background and dividing by the average signal obtained when cells were not treated with any compound.
(§3) Replica daughter plates were prepared with a Zymark Sciclone ALH and integrated Twister II by diluting stock plates 50 fold in medium lacking serum and pen/strep to obtain a compound concentration in daughter plates of 80 μg/ml with 2% DMSO. Assay plates were prepared by seeding cells in black, clear bottom 384-well plates in columns 1-23 (6000 cells/well in 57 μl) using a syringe bulk dispenser. Columns 3-22 were treated with compounds from a daughter library plate by transferring 3 μl from the daughter library plate using 384-position fixed cannula array. The final compound concentrations in assay plates were thus 4 μg/ml. The assay plates were incubated for 48 hours at 37° C. in humidified incubator containing 5% CO2. Plate processing for the calcein AM viability assay was performed using an integrated Minitrak/Sidetrak robotic system from Packard Bioscience (Perkin Elmer). Assay plates were washed with phosphate buffered saline, and 20 μl of calcein AM (0.7 μg/ml) per well was added. Plates were incubated at room temperature for 4 hours. Fluorescence intensity was determined using a Fusion platereader with filters centered on an excitation of 485 nm and an emission of 535 nm.
(§4) Compounds to be retested were purchased from manufacturers. Stocks were prepared in DMSO at a concentration of 1 mg/ml in 384-well polypropylene plates with a 16-point, two-fold dilution dose curve of each compound in a column, in duplicates. Column 1-2 and 23-24 were left empty for controls. […]

[2] = system: BJ-TERT/LT/RAS^V12/ST cells; assay: Calcein AM viability assay, dilution-series retest; conditions: BJ-TERT/LT/Ras^V12/ST cells; 16-point two-fold dilution; two days
Source text: as §1, §2, §3, §4

BJ-TERT/LT/ST cells = assay: Calcein AM viability assay, dilution-series retest; conditions: BJ-TERT/LT/ST cells; 16-point two-fold dilution; two days
Source text: as §1, §2, §3, §4

[3] = system: BJ-TERT/LT/ST/RAS^V12 tumorigenic cells; assay: Calcein AM viability assay, dilution-series retest
Protocol: Described here is work carried out to identify compounds with increased potency or activity in the presence of hTERT, LT, ST, E6, E7 or RAS^V12. […] The primary screen tested (in quadruplicate) the effect of treating tumorigenic BJ-TERT/LT/ST/RAS^V12 engineered tumorigenic cells with each compound for 48 hours at a concentration of 4 μg/mL, corresponding to 10 μM for a compound with a molecular weight of 400, which is the approximate median molecular weight of the libraries. Cell viability was measured using the dye calcein acetoxymethyl ester (calcein AM) (Wang et al., 1993, Hum. Immunol. 3 7, 264-270), which is a non-fluorescent compound that freely diffuses into cells. In live cells, calcein AM is cleaved by intracellular esterases, forming the anionic fluorescent derivative calcein, which cannot diffuse out of live cells. […] The IC50 value (concentration required to inhibit 50% of the calcein AM signal) was calculated for each compound in each cell line (Table 1).
as §2, §3
(§5) Compounds to be retested were purchased from manufacturers. Stocks were prepared in DMSO at a concentration of 1 mg/ml in 384-well polypropylene plates with a 16-point, two-fold dilution dose curve of each compound in a column, in duplicates. Column 1-2 and 23-24 were left empty for controls. Daughter retest plates were prepared from stock retest plate by diluting 66.6 fold in DMEM in 384-well deep-deep well plates (4.5 μl transfer into 300 μl). Cells were seeded at a density of 6000 per well in 40 μl, and 20 μl was added from a daughter retest plate. The plates were incubated for two days at 37° C. with 5% CO2.

TIP5/TERT cells = assay: Calcein AM viability assay, dilution-series retest; conditions: TIP5-TERT cells; 16-point two-fold dilution; two days
Source text: (§6) In a third series, cell lines derived from independently prepared human TIP5 foreskin fibroblasts created by introducing cDNA constructs encoding hTERT, LT, ST and RASV12 (Lessnick et al., 2002, Cancer Cell 1, 393-401) were used. These cell lines were called, respectively: TIP5/TERT, TIP5/TERT/LT, TIP5/TERT/LT/ST, and TIP5/TERT/LT/ST/RAS^V12. In a fourth series, cell lines derived from TIP5 fibroblasts created by introducing cDNA constructs encoding hTERT, E6, E7, ST and RAS^V12 were used. These cell lines were named, respectively: TIP5/TERT/E6, TIP5/TERT/E6/E7, TIP5/TERT/E6/E7/ST, and TIP5/TERT/E6/E7/ST/RAS^V12. In this series, HPV E6 and E7, which inactivate p53 and RB, respectively, serve a similar function as LT in the previous series. However, by using HPV E6 and E7, Applicants were able to observe the effects of inactivating, separately and independently, p53 and RB. Results of a large-scale screen for compounds that display selective killing of these engineered tumorigenic cell lines are described in the examples that follow.
as §2, §3, §5
(§7) Mean RFU (relative fluorescence units) for untreated cells was calculated by averaging columns 1, 2, and 23 (wells with cells but lacking compounds). […]

TIP5/TERT/E6/E7 cells = assay: Calcein AM viability assay, dilution-series retest; conditions: TIP5-TERT/E6E7 cells; 16-point two-fold dilution; two days
Source text: as §6, §2, §3, §5, §7

TIP5/TERT/E6/E7/ST cells = assay: Calcein AM viability assay, dilution-series retest; conditions: TIP5-TERT/E6E7/ST cells; 16-point two-fold dilution; two days
Source text: as §6, §2, §3, §5, §7

[4] = system: TIP5/TERT/E6/E7/ST/RAS^V12 cells; assay: Calcein AM viability assay, dilution-series retest; conditions: TIP5-TERT/E6E7/ST/Ras^V12 cells; 16-point two-fold dilution; two days
Source text: as §6, §2, §3, §5, §7

TIP5/TERT/LT cells = assay: Calcein AM viability assay, dilution-series retest; conditions: TIP5 TERT/LT cells; 16-point two-fold dilution; two days
Source text: as §6, §2, §3, §5, §7

[5] = system: TIP5/TERT/LT/ST/RAS^V12 cells; assay: Calcein AM viability assay, dilution-series retest; conditions: TIP5 TERT/LT/ST/Ras^V12 cells; 16-point two-fold dilution; two days
Source text: as §6, §2, §3, §5, §7

BJ primary cells [6] = assay: Sensitization of primary cells by co-treatment, calcein AM viability staining; conditions: BJ (or BJ-TERT) cells; simultaneous treatment
Source text: (A-C) Western blot of lysates from BJ, BJ-TERT, BJ-TERT/LT/ST, BJ-TERT/LT/ST/RAS^V12, BJ-TERT/LT/RAS^V12 and BJ-TERT/LT/RAS^V12/ST cells with an antibody directed against topoisomerase II (A) or TOPI (B, C). In panel (C), cells were transfected with an siRNA directed against TOPI, lamic A/C or with a control double strand DNA duplex of the same length (TOPI dsDNA). In each case, the blot was probed with an antibody against eIF-4E to identify differences in the amount of protein loaded. The relative amount is quantitated below each band. […] Cell number was determined after transfection with an siRNA directed against TOPI and treatment with the indicated concentrations of camptothecin. (E) Okadaic acid, an inhibitor of PP2A and other cellular phosphatases, sensitizes primary human cells to camptothecin. BJ primary cells were treated simultaneously with the indicated concentrations of both camptothecin and okadaic acid and the effect on calcein AM viability staining was determined. […] BJ primary cells were treated with the indicated concentrations of okadaic acid and the expression level of TOPI was determined by western blot. The relative amount is quantitated below each band.
The compounds in group (iii) are camptothecin (CPT) and a novel compound from a combinatorial library, which Applicants have named erastin, for eradicator of RAS and ST-expressing cells (FIG. 2). Efficient CPT-induced and erastin-induced cell death requires the presence of both ST and RAS^V12 (FIGS. 3 and 4 and Table 1). Although CPT and erastin have a similar genetic basis of selectivity, they have distinct mechanisms of action. […] The phosphatase inhibitor okadaic acid was capable of sensitizing otherwise resistant BJ primary cells to CPT (FIG. 5E), possibly because okadaic acid upregulates TOPI (FIG. 5F).

| Structure (SMILES) | concentration required to achieve 50% inhibition of calcein AM staining (IC50), BJ (BJ primary cells [1]) [µg/mL] | IC50, BJ-TERT/LT/Ras^V12/ST [2] [µg/mL] | IC50, BJ-TERT/LT/ST (BJ-TERT/LT/ST cells) [µg/mL] | IC50, BJ-TERT/LT/ST/Ras^V12 ([3]; BJ-TERT/LT/ST/Ras^V12 cells, 16-point two-fold dilution, two days) [µg/mL] | Tumor Selectivity ([3]; IC50 in primary BJ cells divided by IC50 in BJ-TERT/LT/ST/RAS^V12 tumorigenic cells) | IC50, TIP5-TERT (TIP5/TERT cells) [µg/mL] | IC50, TIP5-TERT/E6E7 (TIP5/TERT/E6/E7 cells) [µg/mL] | IC50, TIP5-TERT/E6E7 ST (TIP5/TERT/E6/E7/ST cells) [µg/mL] | IC50, TIP5-TERT/E6E7 ST/Ras^V12 [4] [µg/mL] | IC50, TIP5 TERT/LT (TIP5/TERT/LT cells) [µg/mL] | IC50, TIP5 TERT/LT/ST/Ras^V12 [5] [µg/mL] | sensitization of cells to camptothecin (BJ primary cells [6]) |
| --- | --- | --- | --- | --- | --- | --- | --- | --- | --- | --- | --- | --- |
| Cc1c2ccccc2c(CSC(=N)N)c2ccccc12.Cl [NSC146109] | >5 | 2.5 | 2.5 | 2.5 | >4 | >5 | 2.5 | 2.5 | 2.5 | >5 | 2.5 | – |
| COc1cc([C@@H]2c3cc4c(cc3[C@H](O)[C@H]3COC(=O)[C@H]23)OCO4)cc(OC)c1OC [podophyllotoxin] | – | – | – | – | – | – | – | – | – | – | – | does not sensitize BJ or BJ-TERT cells to CPT |
